Reference: patent publication US11324733B2, “Methods for improving memory and cognition and for treating memory and cognitive disorders” (Cavion, Inc., priority 2017, dated 2022)

System: AS mice (Ube3am−/p+ KO mice) with LTP deficits
Assay: LTP deficits in cognitively deficient (AS) mice; fEPSP recording in hippocampal slices after oral treatment
Format: in vivo
Method: For all behavioral and electrophysiology experiments female Ube3am−/p+ KO mice (i.e., AS mice) were crossed with wild-type males, to generate heterozygous AS mice and littermate controls in the F1 hybrid 12952-057BL/6 background. The AS mice have cognitive deficits, including long term potentiation (LTP) deficits.
Control mice (“wt”) were treated with vehicle while AS mice were treated with vehicle or MK-8998 (“CX”) at 30 mg/kg or at 60 mg/kg dose given orally twice per day in the morning and afternoon. Dosing was carried out for one week before testing, then behavioral tests were carried out on the animals over a 5-week period.
After the behavioural tests, animals remained under treatment until the animals were sacrificed one hour after the last drug administration. […] LTP was evoked using the 10 Theta burst protocol (10 trains of 4 stimuli at 100 Hz, 200 ms apart), performed at two-third of the maximum fEPSP. fEPSP sizes were recorded once per minute. Potentiation was measured as the normalized increase of the mean fEPSP slope for the duration of the baseline. […] Final LTP was determined over the last 10 min of the recording. […]
LTP was evoked using the 10 Theta burst protocol (10 trains of 4 stimuli at 100 Hz, 200 ms apart), performed at two-third of the maximum fEPSP. Final LTP was determined over the last 10 min of the recording. […]

CC(C)c1ccc(CC(=O)N[C@H](C)c2ccc(OCC(F)(F)F)cn2)cc1 [MK-8998] was tested, and the “P, post hoc Bonferroni multiple comparisons, AS Vehicle vs treated (LTP)” value (30 mg/kg) was 0.01 and the “P, post hoc Bonferroni multiple comparisons, AS Vehicle vs treated (LTP)” value (60 mg/kg) was 0.02.
